Experimental findings from patent publication US9115127B2 (AMGEN INC., priority 2010, dated 2015) are described below.

Counter-ions that a name gives are not always drawn. Some results are limits rather than exact numbers.

As usually defined, the IC50 is the concentration that gives 50% inhibition. Read a low IC50 as greater potency.

The target in this assay is T1, wild-type human ALK (cytoplasmic domain, amino acids 1058-1620, N-terminal GST fusion) (Homo sapiens, UniProt Q9UM73).
T1 construct: The cytoplasmic domain (amino acids 1058-1620) of wild-type human ALK; GST (N); made in house; host or cells: SF9 insect cells
T1 sequence (Q9UM73 1058-1620): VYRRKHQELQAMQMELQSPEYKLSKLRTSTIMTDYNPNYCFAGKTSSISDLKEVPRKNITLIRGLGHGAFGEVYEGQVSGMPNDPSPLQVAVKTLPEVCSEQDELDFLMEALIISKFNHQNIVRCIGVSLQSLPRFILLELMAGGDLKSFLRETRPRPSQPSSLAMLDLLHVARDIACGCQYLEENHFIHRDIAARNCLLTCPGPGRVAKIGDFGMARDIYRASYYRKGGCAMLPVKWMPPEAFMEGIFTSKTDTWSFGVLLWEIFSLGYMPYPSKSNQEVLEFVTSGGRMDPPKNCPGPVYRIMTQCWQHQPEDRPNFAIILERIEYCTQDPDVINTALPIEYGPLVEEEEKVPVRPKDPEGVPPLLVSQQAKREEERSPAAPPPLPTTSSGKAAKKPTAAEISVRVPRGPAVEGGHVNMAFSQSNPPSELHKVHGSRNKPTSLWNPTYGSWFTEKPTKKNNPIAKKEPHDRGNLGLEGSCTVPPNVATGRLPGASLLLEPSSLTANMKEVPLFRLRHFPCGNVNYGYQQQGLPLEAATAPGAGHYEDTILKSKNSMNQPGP
Nature of the assay: ALK Inhibition in Enzyme Assay (Lance TR-FRET kinase assay). The class given is biochemical. The method, then: ALK Inhibition in Enzyme Assay
Kinase activity of the purified protein was assessed using a Lance® TR-FRET assay. […] The reaction was allowed to proceed for 90 minutes at room temperature and was then terminated with 20 mM EDTA in 50 mM Tris (pH 7.5), 100 mM NaCl, 0.05% BSA, and 0.1% Tween-20. Phosphorylation of the peptide substrate was detected using the Lance® detection reagents streptavidin-allophycocyanin (SA-APC) and Eu-W1024 anti-phosphotyrosine antibody (PT66) from Perkin Elmer Life Sciences (Waltham, Mass.). The plates were read on a RUBY star plate reader (BMG LABTECH, Cary, N.C.) with an excitation wavelength of 320 nm.
`O=C(/N=c1\[nH]c2ccc(CN3CCCCC3)cc2n1[C@H]1CC[C@@H](C(=O)N2CCNCC2)CC1)c1ccc(F)cc1` [Example 47, (E)-4-Fluoro-N-(1-(cis-4-(piperazine-1-carbonyl)cyclohexyl)-6-(piperidin-1-ylmethyl)-1H-benzo[d]imidazol-2(3H)-ylidene)benzamide]: the IC50 was under 50 nM. `CC(C)NC(=O)[C@H]1CC[C@@H](n2/c(=N/C(=O)c3ccc(F)cc3)[nH]c3ccc(CN4CCC(CC(=O)O)CC4)cc32)CC1` [Example 48, 2-(1-(((E)-2-(4-Fluorobenzoylimino)-3-(cis-4-(isopropylcarbamoyl)cyclohexyl)-2,3-dihydro-1H-benzo[d]imidazol-5-yl)methyl)piperidin-4-yl)acetic acid] came in with a half-maximal inhibitory concentration (IC50) of under 50 nM. The value for `O=C(/N=c1\[nH]c2ccc(CN3CCCCC3)cc2n1[C@H]1CC[C@@H](C(=O)Nc2nccs2)CC1)c1ccc(F)cc1` [Example 49, (E)-4-Fluoro-N-(6-(piperidin-1-ylmethyl)-1-(cis-4-(thiazol-2-ylcarbamoyl)cyclohexyl)-1H-benzo[d]imidazol-2(3H)-ylidene)benzamide] was 50 to 100 nM. The value for `CC(C)NC(=O)[C@H]1CC[C@@H](n2/c(=N/C(=O)c3ccc(F)cc3)[nH]c3cnc(OCCN4CCOCC4)cc32)CC1` [Example 51, (E)-4-Fluoro-N-(1-(cis-4-(isopropylcarbamoyl)cyclohexyl)-6-(2-morpholinoethoxy)-1H-imidazo[4,5-c]pyridin-2(3H)-ylidene)benzamide] was under 50 nM; that for `CC(C)NC(=O)[C@H]1CC[C@@H](n2/c(=N/C(=O)c3ccc(F)cc3)[nH]c3ccc(CN4CCC[C@@H]4C(=O)O)cc32)CC1` [Example 53, (R)-1-(((E)-2-(4-Fluorobenzoylimino)-3-(cis-4-(isopropylcarbamoyl)cyclohexyl)-2,3-dihydro-1H-benzo[d]imidazol-5-yl)methyl)pyrrolidine-2-carboxylic acid hydrochloride] was under 50 nM; that for `CC(C)NC(=O)[C@H]1CC[C@@H](n2/c(=N/C(=O)c3ccc(F)cc3)[nH]c3ccc(CN4CCC[C@H]4C(=O)O)cc32)CC1` [Example 54, (S)-1-(((E)-2-(4-Fluorobenzoylimino)-3-(cis-4-(isopropylcarbamoyl)cyclohexyl)-2,3-dihydro-1H-benzo[d]imidazol-5-yl)methyl)pyrrolidine-2-carboxylic acid hydrochloride] was under 50 nM.

The compound `C[C@@H]1CN(C(=O)OC(C)(C)C)CCN1C(=O)[C@H]1CC[C@@H](n2/c(=N/C(=O)c3ccc(F)cc3)[nH]c3cnc(OCCN4CCCCC4)cc32)CC1` [Example 56, (R)-tert-Butyl 4-(cis-4-((E)-2-(4-fluorobenzoylimino)-6-(2-(piperidin-1-yl)ethoxy)-2,3-dihydro-1H-imidazo[4,5-c]pyridin-1-yl)cyclohexanecarbonyl)-3-methylpiperazine-1-carboxylate] yielded a 50% inhibitory concentration (IC50) of 100 to 1000 nM. Next, `C[C@@H]1CN(C(=O)OC(C)(C)C)CCN1C(=O)[C@H]1CC[C@@H](n2/c(=N/C(=O)c3ccc(C#N)cc3)[nH]c3cnc(OCCN4CCCCC4)cc32)CC1` [Example 57, (R)-tert-Butyl 4-(cis-4-((E)-2-(4-cyanobenzoylimino)-6-(2-(piperidin-1-yl)ethoxy)-2,3-dihydro-1H-imidazo[4,5-c]pyridin-1-yl)cyclohexanecarbonyl)-3-methylpiperazine-1-carboxylate]: under 50 nM; `C[C@@H]1CNCCN1C(=O)[C@H]1CC[C@@H](n2/c(=N/C(=O)c3ccc(C#N)cc3)[nH]c3cnc(OCCN4CCCCC4)cc32)CC1` [Example 58, (E)-4-Cyano-N-(1-(cis-4-((R)-2-methylpiperazine-1-carbonyl)cyclohexyl)-6-(2-(piperidin-1-yl)ethoxy)-1H-imidazo[4,5-c]pyridin-2(3H)-ylidene)benzamide]: under 50 nM.
